Here are results for two compounds from PubChem BioAssay (NCI).

For the assay, the system named is P388 leukemia. The experiment in a line: NCI tumour cell line growth inhibition, 48 h.

Several values for one entry are separate records, joined by “and”; a condition that tells them apart may be missing. Equal values may be shown once.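 Five concentrations, 48 hours, 96-well plates. GI50 is the concentration that inhibits growth by half. At the TGI there is no net growth.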

Take `CCC/C=C/C=C/C(=O)OC1/C(=C/C(=O)OC)CC2CC(C(C)O)OC(=O)CC(O)CC3CC(OC(C)=O)C(C)(C)C(O)(CC4C/C(=C/C(=O)OC)CC(/C=C/C(C)(C)C1(O)O2)O4)O3` (stereo not drawn): the GI50 is 9.73 µM; the TGI was 10.9 µM and 11 µM. As to `NC(CSC(c1ccccc1)(c1ccccc1)c1ccccc1)C(=O)O` (stereo not drawn), the TGI amounted to 38.8 µM.
